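Method: 48-hour compound exposure of cells in 96-well plates, five concentrations, linear interpolation of endpoints. At the GI50, growth is halved. Definition used: TGI = concentration required for complete inhibition of growth.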
Assays:
Assay in all cases: NCI-60 cell line screen, 48 h
HOP-92 NSCLC = system: HOP-92 NSCLC
SR leukemia = system: SR leukemia
MOLT-4 leukemia = system: MOLT-4 leukemia
NCI-H23 lung = system: NCI-H23 lung
SK-MEL-28 melanoma = system: SK-MEL-28 melanoma
OVCAR-5 ovarian = system: OVCAR-5 ovarian
UO-31 renal = system: UO-31 renal
SNB-19 CNS = system: SNB-19 CNS
A498 renal = system: A498 renal
KM12 colon = system: KM12 colon
RXF 393 renal = system: RXF 393 renal
T-47D breast = system: T-47D breast
NCI-H522 lung = system: NCI-H522 lung
K-562 leukemia = system: K-562 leukemia
786-0 renal = system: 786-0 renal
HCT-116 colon = system: HCT-116 colon
SF-539 CNS = system: SF-539 CNS
OVCAR-4 ovarian = system: OVCAR-4 ovarian
UACC-62 melanoma = system: UACC-62 melanoma
HOP-62 NSCLC = system: HOP-62 NSCLC
SF-295 CNS = system: SF-295 CNS
HL-60(TB) leukemia = system: HL-60(TB) leukemia
HCC-2998 colon = system: HCC-2998 colon
HT29 colon = system: HT29 colon
OVCAR-3 ovarian = system: OVCAR-3 ovarian
COLO 205 colon = system: COLO 205 colon
HCT-15 colon = system: HCT-15 colon
CAKI-1 renal = system: CAKI-1 renal
SK-MEL-5 melanoma = system: SK-MEL-5 melanoma
NCI-H460 lung = system: NCI-H460 lung
SK-OV-3 ovarian = system: SK-OV-3 ovarian
SW-620 colon = system: SW-620 colon
MALME-3M melanoma = system: MALME-3M melanoma
M14 melanoma = system: M14 melanoma
SNB-75 CNS = system: SNB-75 CNS
ACHN renal = system: ACHN renal
UACC-257 melanoma = system: UACC-257 melanoma
MDA-MB-435 = system: MDA-MB-435
NCI/ADR-RES ovarian = system: NCI/ADR-RES ovarian
CCRF-CEM leukemia = system: CCRF-CEM leukemia
NCI-H226 lung = system: NCI-H226 lung
IGROV1 ovarian = system: IGROV1 ovarian
HS 578T breast = system: HS 578T breast
SK-MEL-2 melanoma = system: SK-MEL-2 melanoma
RPMI-8226 leukemia = system: RPMI-8226 leukemia
PC-3 prostate = system: PC-3 prostate
OVCAR-8 ovarian = system: OVCAR-8 ovarian
DU-145 prostate = system: DU-145 prostate
LOX IMVI melanoma = system: LOX IMVI melanoma
SF-268 CNS = system: SF-268 CNS
TK-10 renal = system: TK-10 renal
BT-549 breast = system: BT-549 breast
SN12C renal = system: SN12C renal
MDA-MB-231 breast = system: MDA-MB-231 breast
U251 CNS = system: U251 CNS
A549 NSCLC = system: A549 NSCLC
MCF7 breast = system: MCF7 breast

Compound: CC1(C)N=C(N)N=C(N)N1c1ccc(CCc2ccccc2)c(Cl)c1
- GI50 (HOP-92 NSCLC): 1.14 µM
- TGI (HOP-92 NSCLC): 9.51 µM
- GI50 (SR leukemia): 0.0562 µM
- TGI (SR leukemia): 18.7 µM
- GI50 (MOLT-4 leukemia): 0.0648 µM
- TGI (MOLT-4 leukemia): 13.5 µM
- GI50 (NCI-H23 lung): 0.0791 µM
- TGI (NCI-H23 lung): 15 µM
- GI50 (SK-MEL-28 melanoma): 0.391 µM
- TGI (SK-MEL-28 melanoma): 15.9 µM
- GI50 (OVCAR-5 ovarian): 0.19 µM
- TGI (OVCAR-5 ovarian): 19.7 µM
- GI50 (UO-31 renal): 8.12 µM
- TGI (UO-31 renal): > 100 µM
- GI50 (SNB-19 CNS): 0.172 µM
- TGI (SNB-19 CNS): 15.4 µM
- GI50 (A498 renal): 0.788 µM
- TGI (A498 renal): 15 µM
- GI50 (KM12 colon): 0.0994 µM
- TGI (KM12 colon): 7.61 µM
- GI50 (RXF 393 renal): 0.829 µM
- TGI (RXF 393 renal): 17.6 µM
- GI50 (T-47D breast): 0.698 µM
- TGI (T-47D breast): 13 µM
- GI50 (NCI-H522 lung): 0.236 µM
- TGI (NCI-H522 lung): 12.7 µM
- GI50 (K-562 leukemia): 0.0323 µM
- TGI (K-562 leukemia): 14.6 µM
- GI50 (786-0 renal): 0.179 µM
- TGI (786-0 renal): 14.6 µM
- GI50 (HCT-116 colon): 0.0347 µM
- TGI (HCT-116 colon): 14 µM
- GI50 (SF-539 CNS): 0.131 µM
- TGI (SF-539 CNS): 12.4 µM
- GI50 (OVCAR-4 ovarian): 0.52 µM
- TGI (OVCAR-4 ovarian): 13.1 µM
- GI50 (UACC-62 melanoma): 0.0572 µM
- TGI (UACC-62 melanoma): 11.7 µM
- GI50 (HOP-62 NSCLC): 0.268 µM
- TGI (HOP-62 NSCLC): 12.4 µM
- GI50 (SF-295 CNS): 0.0529 µM
- TGI (SF-295 CNS): 11.3 µM
- GI50 (HL-60(TB) leukemia): 0.0473 µM
- TGI (HL-60(TB) leukemia): 2.72 µM
- GI50 (HCC-2998 colon): 0.361 µM
- TGI (HCC-2998 colon): 13.3 µM
- GI50 (HT29 colon): 0.0531 µM
- TGI (HT29 colon): 12.7 µM
- GI50 (OVCAR-3 ovarian): 0.281 µM
- TGI (OVCAR-3 ovarian): 12.4 µM
- GI50 (COLO 205 colon): 0.0694 µM
- TGI (COLO 205 colon): 6.83 µM
- GI50 (HCT-15 colon): 2.55 µM
- TGI (HCT-15 colon): > 100 µM
- GI50 (CAKI-1 renal): 3.99 µM
- TGI (CAKI-1 renal): > 48.8 µM
- GI50 (SK-MEL-5 melanoma): 0.124 µM
- TGI (SK-MEL-5 melanoma): 1.33 µM
- GI50 (NCI-H460 lung): 0.042 µM
- TGI (NCI-H460 lung): 11.6 µM
- GI50 (SK-OV-3 ovarian): 1.04 µM
- TGI (SK-OV-3 ovarian): 18.4 µM
- GI50 (SW-620 colon): 0.0388 µM
- TGI (SW-620 colon): 13.8 µM
- GI50 (MALME-3M melanoma): 0.728 µM
- TGI (MALME-3M melanoma): 19 µM
- GI50 (M14 melanoma): 0.124 µM
- TGI (M14 melanoma): 13.7 µM
- GI50 (SNB-75 CNS): 0.517 µM
- TGI (SNB-75 CNS): 12.7 µM
- GI50 (ACHN renal): 1.97 µM
- TGI (ACHN renal): > 100 µM
- GI50 (UACC-257 melanoma): 0.392 µM
- TGI (UACC-257 melanoma): 13.1 µM
- GI50 (MDA-MB-435): 0.0528 µM
- TGI (MDA-MB-435): 15.7 µM
- GI50 (NCI/ADR-RES ovarian): 37 µM
- TGI (NCI/ADR-RES ovarian): > 100 µM
- GI50 (CCRF-CEM leukemia): 0.0597 µM
- TGI (CCRF-CEM leukemia): 15.3 µM
- GI50 (NCI-H226 lung): 0.521 µM
- TGI (NCI-H226 lung): 17.1 µM
- GI50 (IGROV1 ovarian): 0.0668 µM
- TGI (IGROV1 ovarian): 15.7 µM
- GI50 (HS 578T breast): 3.7 µM
- TGI (HS 578T breast): 27.2 µM
- GI50 (SK-MEL-2 melanoma): 1.01 µM
- TGI (SK-MEL-2 melanoma): 17.5 µM
- GI50 (RPMI-8226 leukemia): 0.336 µM
- TGI (RPMI-8226 leukemia): 14 µM
- GI50 (PC-3 prostate): 0.0916 µM
- TGI (PC-3 prostate): 12.1 µM
- GI50 (OVCAR-8 ovarian): 0.0897 µM
- TGI (OVCAR-8 ovarian): 13.6 µM
- GI50 (DU-145 prostate): 0.0911 µM
- TGI (DU-145 prostate): 15.8 µM
- GI50 (LOX IMVI melanoma): 0.0426 µM
- TGI (LOX IMVI melanoma): 13.5 µM
- GI50 (SF-268 CNS): 0.0552 µM
- TGI (SF-268 CNS): 14.3 µM
- GI50 (TK-10 renal): 1.96 µM
- TGI (TK-10 renal): 18.3 µM
- GI50 (BT-549 breast): 1.11 µM
- TGI (BT-549 breast): 12.5 µM
- GI50 (SN12C renal): 0.0883 µM
- TGI (SN12C renal): 13 µM
- GI50 (MDA-MB-231 breast): 1.09 µM
- TGI (MDA-MB-231 breast): 19.9 µM
- GI50 (U251 CNS): 0.0427 µM
- TGI (U251 CNS): 13 µM
- GI50 (A549 NSCLC): 0.0452 µM
- TGI (A549 NSCLC): 14 µM
- GI50 (MCF7 breast): 0.058 µM
- TGI (MCF7 breast): 13 µM
